From patent US20150010651A1, “Compositions and methods for the treatment of wounds” (priority 2009, published 2015)
Values joined by “and” are separate entries in the source; they are usually repeats but may differ in a detail not shown here. Equal entries are not always repeated. “Also recorded” adds a separate entry of the source.

Assays:
[1] = test system: diabetic ulcer (non-healing wound); assay: Case studies: powdered wound composition applied topically to infected non-healing wounds / diabetic ulcers of patients; type: in vivo, human
Source text: Thereafter, the wound compositions may be applied to the wound at least once a week until such time as the wound is satisfactorily healed. In one embodiment, a wound composition is applied once a week (after the initial daily application) for a period of at least seven weeks. It is understood that prior to each application, the wound may be rinsed with a sterile solution, such as saline, and allowed to dry. Thereafter, a wound composition may be applied and the wound wrapped in a suitable dressing.
A treatment plan was established for the patient. Under the treatment plan, the patient received: 1) Insulin 70/30 (Novoline) 50 IU morning, 25 IU night; and 2) intravenueously, Co-Amoxiclav 1.2 g+Gentamicin 80 mg+Metronidazole 400 mg in 100 ml N Saline/30 min (every 8 hours). After the injection of the intravenous antibiotics, the patient began taking oral antibiotics: 1) Co-Amoxiclav 625 mg (2 tablets) (twice daily); 2) Ciprofloxacin 500 mg once daily for 2 weeks; and 3) Ibuprofen 600 mg for 5 days (every 8 hours). Thereafter, the wound was cleaned with saline solution. A wound composition comprising a mixture of 300 mg powdered phenyloin (Dilantin®) and 500 mg of powdered Vitamin C was administered over the wound and the wound was dressed. The patient was advised to come back on a daily basis for dressing of the wound and reapplication of the wound composition.
(§1) The patient returned for 9 consecutive visits over the next nine days. Thereafter, the patient began weekly visits. With each visit, the wound was cleaned with saline solution and the powdered wound composition was applied topically to the wound, and redressed.
A treatment plan was established for the patient. Under the treatment plan, the patient received: 1) Insulin 70/30 (Novoline) 40 IU morning, 20IU night; and 2) intravenueously, Co-Amoxiclav 1.2 g+Gentamicin 80 mg+Metronidazole 400 mg in 100 ml N Saline/30 min. every 8 hours. After the injection of the intravenous antibiotics, the patient began taking oral antibiotics: 1) Co-Amoxiclav 625 mg (2 tablets) twice daily 2) Ciprofloxacin 500 mg once daily for 2 weeks; and 3) Ibuprofen 600 mg every 8 hours.; and (4) Co-diovan tablets (valsartan and hydrochlorothiazide) 80 mg/12.5 mg daily. Thereafter, the wound was cleaned with saline solution. A wound composition comprising 300 mg powdered phenyloin (Dilantin®) was administered over the wound and the wound was dressed. The patient was advised to come back on a daily basis for dressing of the wound and reapplication of the wound composition.
as §1, with “redressed. […] No further treatment was prescribed to the patient.” for “redressed.”

diabetic ulcers = settings: patients with diabetic ulcers; control group 45 days; cited from earlier work
[2] = one patient per Example, topical, weekly application, week 8

For `O=C1NC(=O)C(c2ccccc2)(c2ccccc2)N1` [phenyloin, 5.5-diphenyl-2,4-imidazolidinedione], the “portion of the wound healed” value ([1]; Example 16 patient, topical, weekly application, week 13) was “approximately 60%”, the “appearance of the wound” value ([1]; Example 16 patient, topical, weekly application, weeks 3-5) was “continued to appear generally healthy” and the “recurrence of the wound after healing” value ([1]; one patient per Example, Dilantin alone) was “the wound returned in substantially the same location; also recorded: the wound returned in approximately the same location”. For the same compound, the “time the wound took to heal completely” value ([1]; one patient per Example, Dilantin alone, topical) was “approximately 20 weeks and ~27 weeks and ~22 weeks and approximately 25 weeks”, the amputation outcome ([1]; one patient per Example, after treatment course) was “need to amputate the right leg below the knee; also recorded: need to amputate the left leg below the knee” and the “new skin formation (wound healing by secondary intention)” value ([1]; one patient per Example, topical, daily visits for 9 days then weekly, week 1) was “signs of new skin formation”. The granulation tissue formed [1, 2] was “approximately 20%”, the “portion of the wound healed” value [1, 2] was “approximately 35%; also recorded: approximately 25%” and the “portion of the wound healed” value ([1]; one patient per Example, topical, weekly application, week 9) was “approximately 40%”. For the same compound, the “portion of the wound healed” value ([1]; one patient per Example, topical, weekly application, week 10) was “approximately 60%”, the “appearance of the wound” value ([1]; one patient per Example, topical, weekly application, weeks 2-4) was “continued to appear generally healthy” and the “healing of the wound as noted” value ([1]; one patient per Example, topical, weekly application, weeks 5-7) was “beginning to heal very well, but was very slow healing”. The mean healing time (diabetic ulcers) was 21 days.
